In ChEMBL document CHEMBL5584339, “Design, Synthesis, and Evaluation of the Antitubercular Activity of 5-Phenyl Substituted-5, 6-dihydropyrido[2, 3-d]pyrimidine-4, 7(3H, 8H)-dione Compounds” (J Med Chem, 2024):
≈ marks a conversion by molar mass, not a printed value.

Experiments:
Assay type in all cases: functional
[1] = test system: Mycobacterium tuberculosis; assay: Antitubercular activity against isoniazid/streptomycin/rifampicin/ethambutol/p-aminosalicylate/prothionamide/capreomycin resistant Mycobacterium tuberculosis 14862 incubated for 7 days by alamar blue assay; settings: Mycobacterium tuberculosis, 14862, 168 h; time 7 day
[2] = test system: Mycobacterium tuberculosis; assay: Antitubercular activity against isoniazid/streptomycin/rifampicin/ethambutol/p-aminosalicylate/rifabutin/ofloxacin resistant Mycobacterium tuberculosis 13946 incubated for 7 days by alamar blue assay; settings: Mycobacterium tuberculosis, 13946, 168 h; time 7 day
[3] = test system: Mycobacterium tuberculosis; assay: Antitubercular activity against isoniazid/rifampicin resistant Mycobacterium tuberculosis 16833 incubated for 7 days by alamar blue assay; settings: Mycobacterium tuberculosis, 16833, 168 h; time 7 day
[4] = test system: Mycobacterium tuberculosis; assay: Antitubercular activity against isoniazid/rifampicin resistant Mycobacterium tuberculosis 16995 incubated for 7 days by alamar blue assay; settings: Mycobacterium tuberculosis, 16995, 168 h; time 7 day
[5] = test system: Mycobacterium tuberculosis; assay: Antitubercular activity against isoniazid/rifampicin resistant Mycobacterium tuberculosis 12525 incubated for 7 days by alamar blue assay; settings: Mycobacterium tuberculosis, 12525, 168 h; time 7 day

Compound: C=CCSc1nc2c(c(=O)[nH]1)C(c1ccc(OC)cc1[N+](=O)[O-])CC(=O)N2 (stereo not given)
- MIC [1]: 1 µg/mL (≈ 2.57 µM)
- MIC [2]: 2 µg/mL (≈ 5.15 µM)
- MIC [3]: 1 µg/mL (≈ 2.57 µM)
- MIC [4]: 2 µg/mL (≈ 5.15 µM)
- MIC [5]: 2 µg/mL (≈ 5.15 µM)

Compound: CCCSc1nc2c(c(=O)[nH]1)[C@@H](c1ccc(OC)cc1[N+](=O)[O-])CC(=O)N2
- MIC [1]: 0.059 µg/mL (≈ 0.151 µM)
- MIC [2]: 0.125 µg/mL (≈ 0.32 µM)
- MIC [3]: 0.06 µg/mL (≈ 0.154 µM)
- MIC [4]: 0.125 µg/mL (≈ 0.32 µM)
- MIC [5]: 0.125 µg/mL (≈ 0.32 µM)

Compound: CCCSc1nc2c(c(=O)[nH]1)C(c1ccc(OC)cc1O)CC(=O)N2 (stereo not given)
- MIC [1]: 4 µg/mL (≈ 11.1 µM)
- MIC [2]: 2 µg/mL (≈ 5.53 µM)
- MIC [3]: 1 µg/mL (≈ 2.77 µM)
- MIC [4]: 4 µg/mL (≈ 11.1 µM)
- MIC [5]: 4 µg/mL (≈ 11.1 µM)

Compound: CCCSc1nc2c(c(=O)[nH]1)[C@H](c1ccc(OC)cc1)CC(=O)N2
- MIC [1]: 12.8 µg/mL (≈ 37.1 µM)

Compound: CCC[S+]([O-])c1nc2c(c(=O)[nH]1)[C@@H](c1ccc(OC)cc1[N+](=O)[O-])CC(=O)N2 (stereo not given in full)
- MIC [1]: > 32 µg/mL

Compound: C=CCSc1nc2c(c(=O)[nH]1)C(c1ccc(OC)cc1O)CC(=O)N2 (stereo not given)
- MIC [1]: 13.3 µg/mL (≈ 36.9 µM)
- MIC [2]: 8 µg/mL (≈ 22.3 µM)
- MIC [3]: 8 µg/mL (≈ 22.3 µM)
- MIC [4]: 32 µg/mL (≈ 89 µM)
- MIC [5]: 16 µg/mL (≈ 44.5 µM)

Compound: CCCSc1nc2c(c(=O)[nH]1)C(c1ccc(OCC)cc1)CC(=O)N2 (stereo not given)
- MIC [1]: 0.25 µg/mL (≈ 0.696 µM)
- MIC [2]: 2 µg/mL (≈ 5.56 µM)
- MIC [3]: 0.5 µg/mL (≈ 1.39 µM)
- MIC [4]: 1 µg/mL (≈ 2.78 µM)
- MIC [5]: 1 µg/mL (≈ 2.78 µM)

Compound: CCCS(=O)(=O)c1nc2c(c(=O)[nH]1)[C@H](c1ccc(OC)cc1)CC(=O)N2
- MIC [1]: > 32 µg/mL

Compound: CCCOc1ccc(C2CC(=O)Nc3nc(SCCC)[nH]c(=O)c32)cc1 (stereo not given)
- MIC [1]: 2 µg/mL (≈ 5.36 µM)
- MIC [2]: 1 µg/mL (≈ 2.68 µM)
- MIC [3]: 0.5 µg/mL (≈ 1.34 µM)
- MIC [4]: 2 µg/mL (≈ 5.36 µM)
- MIC [5]: 2 µg/mL (≈ 5.36 µM)

Compound: CCCS(=O)(=O)c1nc2c(c(=O)[nH]1)[C@@H](c1ccc(OC)cc1[N+](=O)[O-])CC(=O)N2
- MIC [1]: > 32 µg/mL

Compound: CCCSc1nc2c(c(=O)[nH]1)C(c1ccc(OC)c(N)c1)CC(=O)N2 (stereo not given)
- MIC [1]: 4 µg/mL (≈ 11.1 µM)
- MIC [2]: 16 µg/mL (≈ 44.4 µM)
- MIC [3]: 4 µg/mL (≈ 11.1 µM)
- MIC [4]: 8 µg/mL (≈ 22.2 µM)
- MIC [5]: 8 µg/mL (≈ 22.2 µM)

Compound: CCCSc1nc2c(c(=O)[nH]1)C(c1ccc(OC(C)C)cc1)CC(=O)N2 (stereo not given)
- MIC [1]: 2 µg/mL (≈ 5.36 µM)
- MIC [2]: 1 µg/mL (≈ 2.68 µM)
- MIC [3]: 1 µg/mL (≈ 2.68 µM)
- MIC [4]: 2 µg/mL (≈ 5.36 µM)
- MIC [5]: 4 µg/mL (≈ 10.7 µM)

Compound: C=CCSc1nc2c(c(=O)[nH]1)C(c1ccc(OC)c(O)c1)CC(=O)N2 (stereo not given)
- MIC [1]: 15.6 µg/mL (≈ 43.5 µM)
- MIC [2]: 4 µg/mL (≈ 11.1 µM)
- MIC [3]: 4 µg/mL (≈ 11.1 µM)
- MIC [4]: 16 µg/mL (≈ 44.5 µM)
- MIC [5]: 8 µg/mL (≈ 22.3 µM)

Compound: CCCSc1nc2c(c(=O)[nH]1)[C@@H](c1ccc(OC)cc1)CC(=O)N2
- MIC [1]: 0.06 µg/mL (≈ 0.174 µM)
- MIC [2]: 0.125 µg/mL (≈ 0.362 µM)
- MIC [3]: 0.06 µg/mL (≈ 0.174 µM)
- MIC [4]: 0.125 µg/mL (≈ 0.362 µM)
- MIC [5]: 0.06 µg/mL (≈ 0.174 µM)

Compound: CCCS(=O)(=O)c1nc2c(c(=O)[nH]1)[C@H](c1ccc(OC)cc1[N+](=O)[O-])CC(=O)N2
- MIC [1]: > 32 µg/mL

Compound: C=CCSc1nc2c(c(=O)[nH]1)C(c1ccc(OC)cc1)CC(=O)N2 (stereo not given)
- MIC [1]: 1 µg/mL (≈ 2.91 µM)
- MIC [2]: 1 µg/mL (≈ 2.91 µM)
- MIC [3]: 1 µg/mL (≈ 2.91 µM)
- MIC [4]: 2 µg/mL (≈ 5.82 µM)
- MIC [5]: 2 µg/mL (≈ 5.82 µM)

Compound: CCCCSc1nc2c(c(=O)[nH]1)C(c1ccc(OC)cc1)CC(=O)N2 (stereo not given)
- MIC [1]: 1 µg/mL (≈ 2.78 µM)
- MIC [2]: 2 µg/mL (≈ 5.56 µM)
- MIC [3]: 1 µg/mL (≈ 2.78 µM)
- MIC [4]: 2 µg/mL (≈ 5.56 µM)
- MIC [5]: 2 µg/mL (≈ 5.56 µM)

Compound: CCC[S+]([O-])c1nc2c(c(=O)[nH]1)[C@@H](c1ccc(OC)cc1)CC(=O)N2 (stereo not given in full)
- MIC [1]: > 32 µg/mL

Compound: CCC[S+]([O-])c1nc2c(c(=O)[nH]1)[C@H](c1ccc(OC)cc1[N+](=O)[O-])CC(=O)N2 (stereo not given in full)
- MIC [1]: > 32 µg/mL

Compound: CCCSc1nc2c(c(=O)[nH]1)[C@H](c1ccc(OC)cc1[N+](=O)[O-])CC(=O)N2
- MIC [1]: 13.4 µg/mL (≈ 34.4 µM)

Compound: CCCOc1ccc(C2CC(=O)Nc3nc(SCCC)[nH]c(=O)c32)c(O)c1 (stereo not given)
- MIC [1]: 2 µg/mL (≈ 5.14 µM)
- MIC [2]: 8 µg/mL (≈ 20.5 µM)
- MIC [3]: 2 µg/mL (≈ 5.14 µM)
- MIC [4]: 8 µg/mL (≈ 20.5 µM)
- MIC [5]: 8 µg/mL (≈ 20.5 µM)

Compound: C=CCSc1nc2c(c(=O)[nH]1)C(c1ccc(OCC)cc1)CC(=O)N2 (stereo not given)
- MIC [1]: 1 µg/mL (≈ 2.8 µM)
- MIC [2]: 4 µg/mL (≈ 11.2 µM)
- MIC [3]: 4 µg/mL (≈ 11.2 µM)
- MIC [4]: 4 µg/mL (≈ 11.2 µM)
- MIC [5]: 4 µg/mL (≈ 11.2 µM)

Compound: CCCSc1nc2c(c(=O)[nH]1)C(c1ccc(OC)c(O)c1)CC(=O)N2 (stereo not given)
- MIC [1]: 8 µg/mL (≈ 22.1 µM)
- MIC [2]: 4 µg/mL (≈ 11.1 µM)
- MIC [3]: 4 µg/mL (≈ 11.1 µM)
- MIC [4]: 8 µg/mL (≈ 22.1 µM)
- MIC [5]: 8 µg/mL (≈ 22.1 µM)

Compound: C=CCSc1nc2c(c(=O)[nH]1)C(c1ccc(OCCC)cc1)CC(=O)N2 (stereo not given)
- MIC [1]: 4 µg/mL (≈ 10.8 µM)
- MIC [2]: 1 µg/mL (≈ 2.69 µM)
- MIC [3]: 1 µg/mL (≈ 2.69 µM)
- MIC [4]: 4 µg/mL (≈ 10.8 µM)
- MIC [5]: 4 µg/mL (≈ 10.8 µM)

Compound: CCC[S+]([O-])c1nc2c(c(=O)[nH]1)[C@H](c1ccc(OC)cc1)CC(=O)N2 (stereo not given in full)
- MIC [1]: > 32 µg/mL

Compound: CCCS(=O)(=O)c1nc2c(c(=O)[nH]1)[C@@H](c1ccc(OC)cc1)CC(=O)N2
- MIC [1]: > 32 µg/mL

Compound: CCCSc1nc2c(c(=O)[nH]1)C(c1ccc(OC)cc1[N+](=O)[O-])CC(=O)N2 (racemic)
- MIC [1]: 0.25 µg/mL (≈ 0.64 µM)
- MIC [2]: 1 µg/mL (≈ 2.56 µM)
- MIC [3]: 0.25 µg/mL (≈ 0.64 µM)
- MIC [4]: 0.5 µg/mL (≈ 1.28 µM)
- MIC [5]: 0.5 µg/mL (≈ 1.28 µM)

Compound: CCCSc1nc2c(c(=O)[nH]1)C(c1ccc(OC)cc1)CC(=O)N2 (racemic)
- MIC [1]: 0.25 µg/mL (≈ 0.724 µM)
- MIC [2]: 0.25 µg/mL (≈ 0.724 µM)
- MIC [3]: 0.25 µg/mL (≈ 0.724 µM)
- MIC [4]: 0.5 µg/mL (≈ 1.45 µM)
- MIC [5]: 0.5 µg/mL (≈ 1.45 µM)

Compound: NNC(=O)c1ccncc1 [ISONIAZID]
- MIC [1]: > 10 µg/mL
- MIC [2]: > 10 µg/mL
- MIC [3]: > 10 µg/mL
- MIC [4]: > 10 µg/mL
- MIC [5]: > 10 µg/mL

Compound: CO[C@H]1/C=C/O[C@@]2(C)Oc3c(C)c(O)c4c(O)c(c(/C=N/N5CCN(C)CC5)c(O)c4c3C2=O)NC(=O)/C(C)=C\C=C\[C@H](C)[C@H](O)[C@@H](C)[C@@H](O)[C@@H](C)[C@H](OC(C)=O)[C@@H]1C [RIFAMPIN]
- MIC [1]: > 10 µg/mL
- MIC [2]: > 10 µg/mL
- MIC [3]: > 10 µg/mL
- MIC [4]: > 10 µg/mL
- MIC [5]: > 10 µg/mL
